Tests used:
[1] = molecular target: T1, p38γ (Homo sapiens, UniProt P53778); assay: p38γ degradation, western blot in MDA-MB-231 cells; type: cell-based; conditions: concentrations up to 2.5 µM
T1 construct: endogenous in cells; host or cells: MDA-MB-231
T1 sequence (P53778 1-367): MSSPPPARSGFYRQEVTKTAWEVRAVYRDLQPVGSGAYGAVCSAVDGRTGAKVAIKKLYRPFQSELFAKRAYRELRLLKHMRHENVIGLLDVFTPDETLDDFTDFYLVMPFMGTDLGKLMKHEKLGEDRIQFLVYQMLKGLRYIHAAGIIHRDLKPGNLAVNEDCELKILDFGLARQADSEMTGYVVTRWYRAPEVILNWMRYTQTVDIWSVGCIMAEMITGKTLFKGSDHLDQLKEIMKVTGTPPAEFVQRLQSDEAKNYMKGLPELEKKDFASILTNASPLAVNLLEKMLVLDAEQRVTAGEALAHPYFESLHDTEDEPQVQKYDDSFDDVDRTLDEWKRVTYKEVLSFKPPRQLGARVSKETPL
Procedure: (§1) […] once with ice-cold PBS (1 × ), followed by lysis in buffer containing 25 mM Tris [pH 7.5], 0.25% sodium deoxycholate, 1% Triton X-100, supplemented with 1X protease inhibitor cocktail (Roche), and phosphatase inhibitors (10 mM NaF, 1 mM Na3VO4, and 20 mM β-glycerophosphate), unless otherwise noted. Lysates were spun at 14,000 × g for 10 min at 4 °C and supernatant was evaluated for protein content using a Pierce BCA Protein Assay (ThermoFisher Scientific). In all experiments, 25–50 μg of protein was loaded onto 10% SDS-PAGE gels or 4–20% Criterion TGX precast gradient gels (Bio-Rad), transferred to nitrocellulose membranes, and probed with the specified antibodies overnight at 4 °C in 1X TBS-Tween (Tris-buffered saline plus 0.02% Tween 20) containing 5% non-fat milk. Immunoblots were visualized using a Bio-Rad ChemiDoc imaging instrument and subsequently processed and quantified using the accompanying Bio-Rad ImageLab software. See Supplementary Figure 8 for uncropped scans of western blots shown in the main text figures.
(§2) Supplementary Figure 4 cont.
(§3) Supplementary Figure 4. Characterization of M APK fam ily degradation selectivity (related to Figures 1-2). (a) p38 M APK fam ily m em bers (α, β, δ, γ) were aligned using the T-Coffee multiple sequence alignm ent server. […] Note: JNK1 and JNK2 are expressed as two alternatively-spliced form s. […]

[2] = molecular target: T2, ERK2 (Homo sapiens, UniProt P28482); assay: ERK2 degradation, western blot in MDA-MB-231 cells; type: cell-based; conditions: 0.025-2.5 µM
T2 construct: endogenous in cells; host or cells: MDA-MB-231
Procedure: as §1, §2, §3

[3] = tested on: α-tubulin; assay: CETSA in MDA-MB-231 cell lysate, negative control protein; type: binding, human; conditions: 100 µM PROTAC, 51-55 °C, vs DMSO
Procedure: CETSA protocol was adapted from[60]. In all, 3 × 10^7 MDA-MB-231 cells (1 × 10^7 cells per condition) were collected and resuspended in ice-cold 1X PBS supplemented with 1X protease inhibitor cocktail (Roche) and lysed by three cycles of liquid nitrogen snap freeze, followed by 50% thaw in a room temperature water bath and an additional 50% thaw at 4 °C. After each freeze–thaw cycle, lysate was vortexed briefly to ensure homogenous thawing. Lysate was then cleared for 20 min by centrifugation (14,000 × g at 4 °C) and the soluble fraction was divided into three equal aliquots. The aliquots were treated with vehicle (2.5% DMSO), 100 µM SJFα, or 100 µM SJFδ and incubated at room temperature for 30 min with gentle rotation. Each aliquot was then divided (50 µL) into eight PCR tubes and individually heated at the indicated temperature for 3 min followed by cooling at room temperature for 3 min. After cooling, samples were spun down for 20 min (14,000 × g at 4 °C) and the supernatant (soluble fraction) was analyzed by SDS-PAGE and immunoblotted for p38δ and alpha-tubulin (negative control).

T2 sequence (P28482 whole entry): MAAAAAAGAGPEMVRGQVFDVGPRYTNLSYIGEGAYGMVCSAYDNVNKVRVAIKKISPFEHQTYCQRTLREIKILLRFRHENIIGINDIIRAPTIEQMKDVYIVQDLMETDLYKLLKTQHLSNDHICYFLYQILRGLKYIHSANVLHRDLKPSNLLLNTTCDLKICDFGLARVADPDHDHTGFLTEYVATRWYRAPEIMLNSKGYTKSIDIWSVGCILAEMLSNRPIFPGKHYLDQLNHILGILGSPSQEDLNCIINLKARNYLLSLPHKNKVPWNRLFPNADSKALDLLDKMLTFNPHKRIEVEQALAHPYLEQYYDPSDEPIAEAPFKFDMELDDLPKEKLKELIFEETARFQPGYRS

Row | p38γ degradation [1] | ERK2 degradation [2] | SMILES | thermal shift of α-tubulin [3]
1 | does not degrade | neither PROTAC degrades | COc1cc2c(Oc3ccc(NC(=O)C4(C(=O)Nc5ccc(F)cc5)CC4)cc3F)ccnc2cc1OCCCCOCCCCOCC(=O)N[C@H](C(=O)N1C[C@H](O)C[C@H]1C(=O)NCc1ccc(-c2scnc2C)cc1)C(C)(C)C [SJFα] | thermal shifts were not seen
2 | does not degrade | neither PROTAC degrades | COc1cc2c(Oc3ccc(NC(=O)C4(C(=O)Nc5ccc(F)cc5)CC4)cc3F)ccnc2cc1OCCOCCOCCOc1cc(-c2scnc2C)ccc1CNC(=O)[C@@H]1C[C@@H](O)CN1C(=O)[C@H](C(C)C)N1Cc2ccccc2C1=O [SJFδ] | thermal shifts were not seen

From article PMC6328587 (Nature Communications, 2019)
